target: T1, human CCR5 (Homo sapiens, UniProt P51681); experiment: Inhibition of [125I]-RANTES binding to CCR5/CHO cells (CCR5 antagonist activity); conditions: 40 min, test compound 1 μM, [125I]-RANTES 100 pM, CCR5/CHO strains, room temperature, read-out: Binding Inhibitory Ratio (%)
T1 construct: expressed in transfected cells
Experimental: Cloning of a CCR5 gene was conducted from human spleen cDNA by a PCR method. Using 0.5 ng of spleen cDNA (Toyobo Co., Ltd., QUICK-Clone cDNA) as a template, the PCR reaction was carried out in a DNA Thermal Cycler 480 (Perkin Elmer) using a TaKaRa EX Taq (Takara Shuzo Co., Ltd.) (reaction conditions: 30 cycles of treatments at 95° C. for 1 minute, at 60° C. for 1 minute, and at 75° C. for 5 minutes) by adding 25 pmol of primers, SEQ ID NO. 1 (sequence length: 34; sequence type: nucleic acid; number of chains: a single chain; topology: linear; sequence kind: other nucleic acid, synthetic DNA) described in Experimental Example (1) of WO 99/32100, and SEQ ID NO. 2 (sequence length: 34; sequence type: nucleic acid; number of chains: a single chain; topology: linear; sequence kind: other nucleic acid, synthetic DNA) described in Experimental Example (1) of WO 99/32100, respectively, which were prepared by referring to the base sequence of the CCR5 gene described by Samson et al. (Biochemistry 35 (11), 3362-3367 (1996)). The PCR products were subjected to agarose gel electrophoresis to collect DNA fragments of about 1.0 kb. Then, the CCR5 gene was cloned using an Original TA Cloning Kit (Funakoshi Co., Ltd.).
The plasmids obtained above were digested with restriction enzymes XbaI (Takara Shuzo Co., Ltd.) and BamHI (Takara Shuzo Co., Ltd.), and subjected to agarose gel electrophoresis to collect DNA fragments of about 1.0 kb. The DNA fragments and a plasmid pcDNA3.1 (Funakoshi Co., Ltd.) for expression in animal cells, which was previously digested with XbaI and BamHI, were mixed and ligated by DNA Ligation Kit Ver.2 (Takara Shuzo Co., Ltd.). Transformation of E. coli JM109 competent cells (Takara Shuzo Co., Ltd.) gave plasmid pCKR5.
CHO-K1 cells grown in a 750 ml tissue culture flask (Becton Dickinson) using Ham's F12 medium (Nihon Pharmaceutical Co., Ltd.) containing 10% fetal bovine serum (Lifetech Oriental) were collected from the flask by using 0.5 g/L trypsin-0.2 g/L EDTA (Lifetech Oriental). The cells were then washed with PBS (Lifetech Oriental), centrifuged (1000 rpm, 5 minutes), and suspended in PBS. Next, DNA was introduced into the cells using Gene Pulser (Bio-Rad Laboratories Inc.) under the following conditions. Namely, 8×10^6 cells and 10 μg of plasmid pCKR5 for expression of human CCR5 were added into a cuvette of a 0.4 cm-gap, and electroporation was carried out at an electric voltage of 0.25 kV and a capacitance of 960 μF. Subsequently, the cells were transferred into Ham's F12 medium containing 10% fetal bovine serum, and incubated for 24 hours. The cells were again collected, centrifuged, and then suspended in Ham's F12 medium containing 10% fetal bovine serum and Geneticin (Lifetech Oriental) at a concentration of 500 μg/ml. The suspension of cells was diluted to a concentration of 10^4 cells/ml, and inoculated on a 96-well plate (Becton Dickinson) to give Geneticin-resistant strains.
Subsequently, the Geneticin-resistant strains were cultured in the 96-well plate (Becton Dickinson), and then CCR5-expressing cells were selected from the resistant strains. Namely, an assay buffer (Ham's F12 medium containing 0.5% BSA, and 20 mM HEPES (Wako Pure Chemical Industries, Ltd., pH 7.2)) containing 200 pM [^125I]-RANTES (Amersham) as a ligand was added to each well and the binding reaction was carried out at room temperature for 40 minutes. Each well plate containing the cells was washed with ice-cooled PBS, and then to each well was added 1 M NaOH in an amount of 50 μl/well, which was stirred. The cells to which the ligand bound specifically, i.e., CCR5/CHO strains, were selected by measurement of radioactivity by γ-counter.
The CCR5/CHO strains were inoculated on a 96-well microplate at a concentration of 5×10^4 cells/well, respectively and were cultured for 24 hours. […]

T1 sequence (P51681 whole entry): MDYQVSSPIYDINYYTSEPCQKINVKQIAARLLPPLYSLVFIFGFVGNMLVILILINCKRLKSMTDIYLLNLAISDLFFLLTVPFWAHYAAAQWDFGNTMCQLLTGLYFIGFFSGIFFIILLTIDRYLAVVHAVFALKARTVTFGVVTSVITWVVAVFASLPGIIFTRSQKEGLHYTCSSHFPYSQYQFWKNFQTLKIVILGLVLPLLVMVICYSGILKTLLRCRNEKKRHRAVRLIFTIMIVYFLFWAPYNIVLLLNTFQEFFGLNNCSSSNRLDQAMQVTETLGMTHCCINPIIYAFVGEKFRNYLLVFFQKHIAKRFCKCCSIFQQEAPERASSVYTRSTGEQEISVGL

Structure (SMILES)	inhibition at 1 µM [%]
CCCCOCCOc1ccc(-c2ccc(N3CCC(C(=O)O)C3)c(/C=C(\C)C(=O)Nc3ccc([S@@+]([O-])Cc4cncn4CCC)cc3)c2)cc1 (single isomer, unassigned) [Compound 59, (Ss)-(2E)-3-[4′-(2-butoxyethoxy)-4-(3-carboxypyrrolidin-1-yl)-1,1′-biphenyl-3-yl]-2-methyl-N-[4-[[(1-propyl-1H-imidazol-5-yl)methyl]sulfinyl]phenyl]acrylamide]	89
CCCCOCCOc1ccc(-c2ccc(N3CCC(CC(=O)O)C3)c(/C=C(\C)C(=O)Nc3ccc([S@@+]([O-])Cc4cncn4CCC)cc3)c2)cc1 (some centres unmarked) [Compound 62, (Ss)-(2E)-3-[4′-(2-butoxyethoxy)-4-[3-(carboxymethyl)pyrrolidin-1-yl]-1,1′-biphenyl-3-yl]-2-methyl-N-[4-[[(1-propyl-1H-imidazol-5-yl)methyl]sulfinyl]phenyl]acrylamide]	100
CCCCOCCOc1ccc(-c2ccc(N3CCCC3)c(/C(C)=C/C(=O)Nc3ccc([S@@+]([O-])Cc4cncn4CCC)cc3)c2)cc1 [Compound 35, (S)-(2E)-3-[4′-(2-butoxyethoxy)-4-pyrrolidin-1-yl-1,1′-biphenyl-3-yl]-N-[4-[[(1-propyl-1H-imidazol-5-yl)methyl]sulfinyl]phenyl]but-2-enoic amide]	100
CCCCOCCOc1ccc(-c2ccc(N3CC(C)C(C)C3)c(/C=C(\C)C(=O)Nc3ccc([S@@+]([O-])Cc4cncn4CCC)cc3)c2)cc1 (stereo partly drawn) [Compound 42, (S)-(2E)-3-[4′-(2-butoxyethoxy)-4-(3,4-dimethylpyrrolidin-1-yl)-1,1′-biphenyl-3-yl]-2-methyl-N-[4-[[(1-propyl-1H-imidazol-5-yl)methyl]sulfinyl]phenyl]acrylamide]	100
CCCCOCCOc1ccc(-c2ccc(N3CCCC3C)c(/C=C(\C)C(=O)Nc3ccc([S@@+]([O-])Cc4cncn4CCC)cc3)c2)cc1 (some centres unmarked) [Compound 17, (Ss)-(2E)-3-[4′-(2-butoxyethoxy)-4-(2-methylpyrrolidin-1-yl)-1,1′-biphenyl-3-yl]-2-methyl-N-[4-[[(1-propyl-1H-imidazol-5-yl)methyl]sulfinyl]phenyl]acrylamide]	100
CCCCOCCOc1ccc(-c2cnc(N3CCC(CO)C3)c(/C=C(\C)C(=O)Nc3ccc([S@@+]([O-])Cc4cncn4CCC)cc3)c2)cc1 (some centres unmarked) [Compound 50, (Ss)-(2E)-3-[5-[4-(2-butoxyethoxy)phenyl]-2-[3-(hydroxymethyl)pyrrolidin-1-yl]pyridin-3-yl]-2-methyl-N-[4-[[(1-propyl-1H-imidazol-5-yl)methyl]sulfinyl]phenyl]acrylamide]	100
CCCCOCCOc1ccc(-c2cnc(N3CCC(COC(C)=O)C3)c(/C=C(\C)C(=O)Nc3ccc([S@@+]([O-])Cc4cncn4CCC)cc3)c2)cc1 (some centres unmarked) [Compound 49, (Ss)-(2E)-3-[2-[3-(acetoxymethyl)pyrrolidin-1-yl]-5-[4-(2-butoxyethoxy)phenyl]pyridin-3-yl]-2-methyl-N-(4-[[(1-propyl-1H-imidazol-5-yl)methyl]sulfinyl]phenyl]acrylamide]	100
CCCCOCCOc1ccc(-c2ccc(N3CCC(C(=O)OC)C3)c(/C=C(\C)C(=O)Nc3ccc([S@@+]([O-])Cc4cncn4CCC)cc3)c2)cc1 (some centres unmarked) [Compound 40, (Ss)-(2E)-3-[4′-(2-butoxyethoxy)-4-[3-(methoxycarbonyl)pyrrolidin-1-yl]-1,1′-biphenyl-3-yl]-2-methyl-N-[4-[[(1-propyl-1H-imidazol-5-yl)methyl]sulfinyl]phenyl]acrylamide]	100
CCCCOCCOc1ccc(-c2ccc(N3CCC(CC(=O)OCC)C3)c(/C=C(\C)C(=O)Nc3ccc([S@@+]([O-])Cc4cncn4CCC)cc3)c2)cc1 (some centres unmarked) [Compound 61, (Ss)-(2E)-3-[4′-(2-butoxyethoxy)-4-[3-(2-ethoxy-2-oxoethyl)pyrrolidin-1-yl]-1,1′-biphenyl-3-yl]-2-methyl-N-(4-[[(1-propyl-1H-imidazol-5-yl)methyl]sulfinyl]phenyl]acrylamide]	94
CCCCOCCOc1ccc(-c2ccc(N3CCC(CO)C3)c(/C=C(\C)C(=O)Nc3ccc([S@@+]([O-])Cc4cncn4CCC)cc3)c2)cc1 (some centres unmarked) [Compound 39, (Ss)-(2E)-3-[4′-(2-butoxyethoxy)-4-[3-(hydroxymethyl)pyrrolidin-1-yl]-1,1′-biphenyl-3-yl]-2-methyl-N-[4-[[(1-propyl-1H-imidazol-5-yl)methyl]sulfinyl]phenyl]acrylamide]	99
CCCCOCCOc1ccc(-c2cnc(N3CCC(C)C3)c(/C=C(\C)C(=O)Nc3ccc([S@@+]([O-])Cc4cncn4CCC)cc3)c2)cc1 (some centres unmarked) [Compound 48, (Ss)-(2E)-3-[5-[4-(2-butoxyethoxy)phenyl]-2-(3-methylpyrrolidin-1-yl)pyridin-3-yl]-2-methyl-N-[4-[[(1-propyl-1H-imidazol-5-yl)methyl]sulfinyl]phenyl]acrylamide]	98
CCCCOCCOc1ccc(-c2ccc(N3CCC(C(N)=O)C3)c(/C=C(\C)C(=O)Nc3ccc([S@@+]([O-])Cc4cncn4CCC)cc3)c2)cc1 (some centres unmarked) [Compound 43, (Ss)-(2E)-3-[4′-(2-butoxyethoxy)-4-(3-carbamoylpyrrolidin-1-yl)-1,1′-biphenyl-3-yl]-2-methyl-N-[4-[[(1-propyl-1H-imidazol-5-yl)methyl]sulfinyl]phenyl]acrylamide]	86
CCCCOCCOc1ccc(-c2ccc(N3CCC(C)C3)c(/C=C(\C)C(=O)Nc3ccc([S@@+]([O-])Cc4cncn4CCC)cc3)c2)cc1 (some centres unmarked) [Compound 23, (Ss)-(2E)-3-[4′-(2-butoxyethoxy)-4-(3-methylpyrrolidin-1-yl)-1,1′-biphenyl-3-yl]-2-methyl-N-[4-[[(1-propyl-1H-imidazol-5-yl)methyl]sulfinyl]phenyl]acrylamide]	100

same assay, conditions: test compound 1 μM; [125I]-RANTES 100 pM; CCR5/CHO strains; room temperature, 40 minutes

Structure (SMILES)	Binding Inhibitory Ratio (%)
CCCCOCCOc1ccc(-c2ccc(N3CCC(O)C3)c(/C=C(\C)C(=O)Nc3ccc([S@@+]([O-])Cc4cncn4CCC)cc3)c2)cc1 (some centres unmarked) [Compound 26]	90
CCCCOCCOc1ccc(-c2ccc(N3CCC(C(=O)O)C3)c(/C=C(\C)C(=O)Nc3ccc([S@@+]([O-])Cc4cncn4CCC)cc3)c2)cc1 (single isomer, unassigned) [Compound 60, (Ss)-(2E)-3-[4′-(2-butoxyethoxy)-4-(3-carboxypyrrolidin-1-yl)-1,1′-biphenyl-3-yl]-2-methyl-N-[4-[[(1-propyl-1H-imidazol-5-yl)methyl]sulfinyl]phenyl]acrylamide]	91
CCCCOCCOc1ccc(-c2ccc(N3CCC(C(=O)OC)C3)c(/C=C(\C)C(=O)Nc3ccc([S@@+]([O-])Cc4cncn4CCC)cc3)c2)cc1 (single isomer, unassigned) [Compound 58, (Ss)-(2E)-3-[4′-(2-butoxyethoxy)-4-[3-(methoxycarbonyl)pyrrolidin-1-yl]-1,1′-biphenyl-3-yl]-2-methyl-N-[4-[[(1-propyl-1H-imidazol-5-yl)methyl]sulfinyl]phenyl]acrylamide]	95
CCCCOCCOc1ccc(-c2cc(/C=C(\C)C(=O)Nc3ccc([S@@+]([O-])Cc4cncn4CCC)cc3)c3c(c2)CCCN3C)cc1 [Compound 29, (S)-(2E)-3-[6-[4-(2-butoxyethoxy)phenyl]-1-methyl-1,2,3,4-tetrahydroquinolin-8-yl]-2-methyl-N-[4-[[(1-propyl-1H-imidazol-5-yl)methyl]sulfinyl]phenyl]-2-acrylic amide]	100
